Legend:
[1] = Dissociation constant, pKa of compound; assay type: physicochemical
[2] = molecular target: cGMP-specific 3',5'-cyclic phosphodiesterase (Homo sapiens, UniProt O76074)
Description: Inhibition of PDE5 (unknown origin)

Plasma kallikrein = Plasma kallikrein (Homo sapiens, UniProt P03952); assay: Inhibition of plasma kallikrein (unknown origin)
[3] = Inhibition of GABA receptor BZ domain (unknown origin); design: species or system Homo sapiens

Plasma kallikrein, sequence (P03952 20-390 limits assumed): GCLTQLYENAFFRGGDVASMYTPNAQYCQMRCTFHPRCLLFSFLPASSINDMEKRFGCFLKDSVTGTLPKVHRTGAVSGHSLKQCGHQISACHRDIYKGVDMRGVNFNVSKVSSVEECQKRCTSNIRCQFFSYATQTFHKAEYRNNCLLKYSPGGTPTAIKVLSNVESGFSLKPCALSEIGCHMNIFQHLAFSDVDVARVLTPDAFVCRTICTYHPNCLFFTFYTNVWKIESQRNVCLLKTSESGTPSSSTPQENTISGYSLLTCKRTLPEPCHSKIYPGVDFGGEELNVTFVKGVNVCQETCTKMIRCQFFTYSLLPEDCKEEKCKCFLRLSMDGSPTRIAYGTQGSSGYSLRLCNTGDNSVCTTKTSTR
Plasma kallikrein, sequence (P03952 391-638 limits assumed): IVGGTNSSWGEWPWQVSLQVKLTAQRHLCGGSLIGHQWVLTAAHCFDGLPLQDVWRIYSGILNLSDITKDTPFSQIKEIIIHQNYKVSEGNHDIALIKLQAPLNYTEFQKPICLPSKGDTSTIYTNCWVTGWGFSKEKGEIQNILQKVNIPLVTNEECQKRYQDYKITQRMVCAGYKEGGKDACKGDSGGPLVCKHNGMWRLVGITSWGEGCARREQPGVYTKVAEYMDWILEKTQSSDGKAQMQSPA

For CCCCc1nn(-c2ccccc2Cl)c(C(=O)O)c1Cc1ccc(-c2ccccc2-c2nn[nH]n2)cc1, the pKa [1] was 7.1.

Work on CCCOc1ccc(S(=O)(=O)NCCC2CCCN2C)cc1-c1nc2c(CCC)nn(C)c2c(=O)[nH]1 (stereo not given) yielded an IC50 [2] of 8.25 nM.

N#Cc1cccc([C@@H](NCC2CC2)c2ccc(F)c(NC(=O)c3cc(C(F)(F)F)nn3-c3cccc(CN)c3)c2)c1 [BEROTRALSTAT] gave an IC50 (Plasma kallikrein) of 1 nM.

For CCN(C(C)=O)c1cccc(-c2ccnc3c(C#N)cnn23)c1 [ZALEPLON], the IC50 [3] was 167 nM.

With CCCCc1nc(-c2ccccc2Cl)c(C(=O)O)n1Cc1ccc(-c2ccccc2-c2nn[nH]n2)cc1 the pKa [1] was 2.5.

— ChEMBL document CHEMBL5150054, “Pyrazole-containing pharmaceuticals: target, pharmacological activity, and their SAR studies” (RSC Med Chem, 2022)
